Reference: US20230286973A1, “PROTEIN SECRETION INHIBITORS” (KEZAR LIFE SCIENCES, priority 2020, published 2023)
Where two headings read alike, the source gives them in different places.

Key:
[1] = Liver Microsome Stability Assay (rat); conditions: rat liver microsomes, with NADPH, 1.0 uM compound
Description: (§2) Stability of a compound was assessed in the presence of liver microsomes from various sources—mouse, rat, monkey and human liver microsomes. 1.0 uM compound, 0.4% DMSO in 0.1 M Potassium Phosphate with 1.0 mg/mL liver microsomes, were incubated at 37° C. with or without 1 mM NADPH. The samples were quenched at 0, and 30 minutes.

[2] = Liver Microsome Stability Assay (mouse); conditions: mouse liver microsomes, with NADPH, 1.0 uM compound
Description: as §2

[3] = Liver Microsome Stability Assay (human); conditions: human liver microsomes, with NADPH, 1.0 uM compound
Description: as §2

[4] = Liver Microsome Stability Assay (monkey); conditions: monkey liver microsomes, with NADPH, 1.0 uM compound
Description: as §2

[5] = tested on: PD1-ss+10aa/Gaussia Luciferase; experiment: Dox-Induced PD1-ss-Gluc Assay; type: cell-based; conditions: 24 hr Dox induction, 293FRT/TO cells, read-out: 24 hr Dox Inducible PD1ssGluc 293FRT/TO: Mean IC50
Description: Flp-In 293 T-REx™ cells were transfected with pcDNA™5/FRT/TO plasmid inserted with cDNA encoding Gaussia Luciferase fused to the 3′ end of cDNA encoding PD1 signal sequence plus 10 amino acids (N-[…]-C) (SEQ ID NO: 1). Transfected cells were selected for resistance to the selectable markers Hygromycin and Blasticidin to create a stable cell line that contained the PD1-ss+10aa/Gaussia Luciferase cDNA insert whose expression was regulated under the T-REx™ system. The day before assay, cells were trypsinized and plated in 384-well tissue culture plates. The next day, compound dilutions in DMSO/media containing doxycycline were added to the wells and incubated at 37° C., 5% CO2.
(§1) For chemical structures that include one or more stereoisomers, but are illustrated without indicating stereochemistry, the assay data refers to a mixture of stereoisomers.

[6] = tested on: IL-2-FL/Gaussia Luciferase; experiment: Dox Induced IL2-FL-Gluc Assay; type: cell-based; conditions: for IC50: 24 hr Dox induction, 293FRT/TO cells, read-out: 24 hr Dox Inducible IL2FLGluc 293FRT/TO: Mean IC50; for 24 hr Dox Inducible IL2FLGluc 293FRT/TO: IL2/PD1: ratio of IL2FLGluc IC50 to PD1ssGluc IC50
Description: Flp-In 293 T-REx™ cells were transfected with pcDNA™5/FRT/TO plasmid inserted with cDNA encoding Gaussia Luciferase fused to the 3′ end of cDNA encoding full length IL-2 (amino acids 1-153). Transfected cells were selected for resistance to the selectable markers Hygromycin and Blasticidin to create a stable cell line that contained the IL-2-FL/Gaussia Luciferase cDNA insert whose expression was regulated under the T-REx™ system. The day before assay, cells were trypsinized and plated in 384-well tissue culture plates. The next day, compound dilutions in DMSO/media containing doxycycline were added to the wells and incubated at 37° C., 5% CO2.
as §1

[7] = '<=>' given where both are I.A.

SMILES	Liver Microsome Stability (Multiple Species): Rat - % Remaining after 30 min w/NADPH [1] [%]	Liver Microsome Stability (Multiple Species): Mouse - % Remaining after 30 min w/NADPH [2] [%]	Liver Microsome Stability (Multiple Species): Human - % Remaining after 30 min w/NADPH [3] [%]	Liver Microsome Stability (Multiple Species): Monkey - % Remaining after 30 min w/NADPH [4] [%]	IC50 [5] [nM]	IC50 [6] [nM]	24 hr Dox Inducible IL2FLGluc 293FRT/TO: IL2/PD1 [6]	IC50 ([5]; mean) [nM]	IC50 ([6]; mean) [nM]	24 hr Dox Inducible IL2FLGluc 293FRT/TO: IL2/PD1 [6, 7]
O=C(Nc1nc([C@H]2CCCN2c2ccc(OC3CCNCC3)cc2)cs1)c1cccn1Cc1ccncc1 [Compound A6, (R)-N-(4-(1-(4-(piperidin-4-yloxy)phenyl)pyrrolidin-2-yl)thiazol-2-yl)-1-(pyridin-4-ylmethyl)-1H-pyrrole-2-carboxamide]	44.8	37.4	25.7	25.4						
CCc1ccc(N2CCC[C@@H]2c2csc(NC(=O)c3cccn3Cc3ccncc3)n2)cc1 [Compound A22, (R)-N-(4-(1-(4-ethylphenyl)pyrrolidin-2-yl)thiazol-2-yl)-1-(pyridin-4-ylmethyl)-1H-pyrrole-2-carboxamide]	11.7	15.8	29.1	17.6						
CC(C)c1ccc(N2CCC[C@@H]2c2csc(NC(=O)c3cccn3Cc3ccncc3)n2)cc1 [Compound A23, (R)-N-(4-(1-(4-isopropylphenyl)pyrrolidin-2-yl)thiazol-2-yl)-1-(pyridin-4-ylmethyl)-1H-pyrrole-2-carboxamide]	40.2	25.3	24.7	29.9						
O=C(Nc1nc([C@H]2CCCN2c2ccc(C3CC3)cc2)cs1)c1cccn1Cc1ccncc1 [Compound A24, (R)-N-(4-(1-(4-cyclopropylphenyl)pyrrolidin-2-yl)thiazol-2-yl)-1-(pyridin-4-ylmethyl)-1H-pyrrole-2-carboxamide]	35.9	19.9	22.4	22.5						
O=C(Nc1nc([C@H]2CCCN2c2cnccn2)cs1)c1cccn1Cc1ccncc1 [Compound A30, (R)-N-(4-(1-(pyrazin-2-yl)pyrrolidin-2-yl)thiazol-2-yl)-1-(pyridin-4-ylmethyl)-1H-pyrrole-2-carboxamide]	0.21	0.86	0.27	0.03						
O=C(Nc1nc([C@H]2CCCN2c2ncccn2)cs1)c1cccn1Cc1ccncc1 [Compound A32, (R)-1-(pyridin-4-ylmethyl)-N-(4-(1-(pyrimidin-2-yl)pyrrolidin-2-yl)thiazol-2-yl)-1H-pyrrole-2-carboxamide]	0.55	0.17	0.24	0.05						
CC1=NC(/C=C/c2csc(NC(=O)c3cccn3Cc3ccncc3)n2)CO1 (stereo not shown) [Compound B14]	3.31	2.9	3.9	6.02						
CN1C(=O)OCC1/C=C/c1csc(NC(=O)c2cccn2Cc2ccncc2)n1 (stereo not shown) [Compound B15, (E)-N-(4-(2-(3-methyl-2-oxooxazolidin-4-yl)vinyl)thiazol-2-yl)-1-(pyridin-4-ylmethyl)-1H-pyrrole-2-carboxamide]	0.28	0.34	0.11	0.4						
CN1C(=O)CCCC1/C=C/c1csc(NC(=O)c2cccn2Cc2ccncc2)n1 (stereo not shown) [Compound B19, (E)-N-(4-(2-(1-methyl-6-oxopiperidin-2-yl)vinyl)thiazol-2-yl)-1-(pyridin-4-ylmethyl)-1H-pyrrole-2-carboxamide]	1.18	0.83	0.05	0.03						
Cn1ccnc1/C=C/c1csc(NC(=O)c2cccn2Cc2ccncc2)n1 [Compound B20, (E)-N-(4-(2-(1-methyl-1H-imidazol-2-yl)vinyl)thiazol-2-yl)-1-(pyridin-4-ylmethyl)-1H-pyrrole-2-carboxamide]					5420	> 25000	>4.6			
N#CC[C@@H]1CC[C@H]1Cn1cccc1C(=O)Nc1nc([C@H]2CCCN2c2ccccc2)cs1 [Compound C18, 1-(((1R,2S)-2-(cyanomethyl)cyclobutyl)methyl)-N-(4-((R)-1-phenylpyrrolidin-2-yl)thiazol-2-yl)-1H-pyrrole-2-carboxamide]	0.2	0.15	0.07	0.08						
N#CCC1(Cn2cccc2C(=O)Nc2nc([C@H]3CCCN3c3ccccc3)cs2)COC1 [Compound C19, (R)-1-((3-(cyanomethyl)oxetan-3-yl)methyl)-N-(4-(1-phenylpyrrolidin-2-yl)thiazol-2-yl)-1H-pyrrole-2-carboxamide]	3.9	3.48	3.59	8.4						
CC(CC#N)Cn1cccc1C(=O)Nc1nc([C@H]2CCCN2c2ccccc2)cs1 (stereo partly drawn) [Compound C20, 1-(3-cyano-2-methylpropyl)-N-(4-((R)-1-phenylpyrrolidin-2-yl)thiazol-2-yl)-1H-pyrrole-2-carboxamide]	10.6	4.75	15.3	15						
O=C(Nc1nc([C@H]2CCCN2c2ccccc2)cs1)c1cccn1CCCCc1cnn[nH]1 [Compound C26, (R)-1-(4-(1H-1,2,3-triazol-5-yl)butyl)-N-(4-(1-phenylpyrrolidin-2-yl)thiazol-2-yl)-1H-pyrrole-2-carboxamide]								7970	> 25000	>3.1
O=C(Nc1nc([C@H]2CCCN2c2ccccc2)cs1)c1cccn1Cc1ccncc1F [Compound E27, (R)-1-((3-fluoropyridin-4-yl)methyl)-N-(4-(1-phenylpyrrolidin-2-yl)thiazol-2-yl)-1H-pyrrole-2-carboxamide]								17.5	56.8	3.2
O=C(Nc1nc([C@H]2CCCN2C2COC2)cs1)c1cccn1Cc1ccncc1 [Compound E49, (R)-N-(4-(1-(oxetan-3-yl)pyrrolidin-2-yl)thiazol-2-yl)-1-(pyridin-4-ylmethyl)-1H-pyrrole-2-carboxamide]	1.92	1.59	0.09	0.09						
CC(C)c1cccc(/C=C/c2csc(NC(=O)c3cccn3Cc3ccncc3)n2)n1 [Compound E55, (E)-N-(4-(2-(6-isopropylpyridin-2-yl)vinyl)thiazol-2-yl)-1-(pyridin-4-ylmethyl)-1H-pyrrole-2-carboxamide]								315	2980	9.5
